Converted amounts (≈) assume the structure as drawn.
Key:
Format in all cases: cell-based
P. aeruginosa MP-3 = experiment: Broth dilution MIC determination (CLSI), P. aeruginosa MP-3; settings: Pseudomonas aeruginosa, MP3; strain MP-3, broth dilution
K. pneumoniae MP-546 = experiment: Broth dilution MIC determination (CLSI), K. pneumoniae MP-546; settings: Klebsiella pneumoniae, MP546; strain MP-546, broth dilution
E. coli MP-4 = experiment: Broth dilution MIC determination (CLSI), E. coli MP-4; settings: Escherichia coli, MP4; strain MP-4, broth dilution; read-out: MIC E. coli MP-4
A. baumannii MP-15 = experiment: Broth dilution MIC determination (CLSI), A. baumannii MP-15; settings: Acinetobacter baumannii, MP15; strain MP-15, broth dilution; read-out: MIC A. baumanii MP-15
S. aureus MP-12 = experiment: Broth dilution MIC determination (CLSI), S. aureus MP-12; settings: Staphylococcus aureus, MP12; strain MP-12, broth dilution

SMILES | MIC (P. aeruginosa MP-3) [µg/mL] | MIC (K. pneumoniae MP-546) [µg/mL] | MIC (E. coli MP-4) [µg/mL] | MIC (A. baumannii MP-15) [µg/mL] | MIC (S. aureus MP-12) [µg/mL]
CO[C@]1(C)C[C@@H](C)CN(C)[C@H]([C@@H]2CCCNC2)COC(=O)C(C)(C)C(=O)[C@H](C)[C@H]1O[C@@H]1O[C@H](C)C[C@H](N(C)C)[C@H]1O [Compound 77] | > 32 | 4 to 32 (≈ 6.85 to 54.8 µM) | 4 to 32 (≈ 6.85 to 54.8 µM) | > 32 | > 32
CCN1C2CCC1CC([C@@H]1COC(=O)C(C)(C)C(=O)[C@H](C)[C@@H](O[C@@H]3O[C@H](C)C[C@H](N(C)C)[C@H]3O)[C@](C)(OC)C[C@@H](C)CN1C)C2 (stereo partly drawn) [Compound 15, (3R,6R,8R,9R,10R)-9-(((2S,3R,4S,6R)-4-(dimethylamino)-3-hydroxy-6-methyltetrahydro-2H-pyran-2-yl)oxy)-3-(8-ethyl-8-azabicyclo[3.2.1]octan-3-yl)-8-methoxy-4,6,8,10,12,12-hexamethyl-1-oxa-4-azacyclotridecane-11,13-dione] | > 32 | 4 to 32 (≈ 6.27 to 50.2 µM) | < 4 | > 32 | 4 to 32 (≈ 6.27 to 50.2 µM)
CO[C@]1(C)C[C@@H](C)CN(C)[C@H]([C@@H]2CCCN2)COC(=O)C(C)(C)C(=O)[C@H](C)[C@H]1O[C@@H]1O[C@H](C)C[C@H](N(C)C)[C@H]1O [Compound 65, (3R,6R,8R,9R,10R)-9-(((2S,3R,4S,6R)-4-(dimethylamino)-3-hydroxy-6-methyltetrahydro-2H-pyran-2-yl)oxy)-8-methoxy-4,6,8,10,12,12-hexamethyl-3-((S)-pyrrolidin-2-yl)-1-oxa-4-azacyclotridecane-11,13-dione] | > 32 | > 32 | 4 to 32 (≈ 7.02 to 56.2 µM) | > 32 | > 32
CO[C@]1(C)C[C@@H](C)CN(C)[C@@H](C2CCN(C)CC2)COC(=O)C(C)(C)C(=O)[C@H](C)[C@H]1O[C@@H]1O[C@H](C)C[C@H](N(C)C)[C@H]1O [Compound 64, (3S,6R,8R,9R,10R)-9-(((2S,3R,4S,6R)-4-(dimethylamino)-3-hydroxy-6-methyltetrahydro-2H-pyran-2-yl)oxy)-8-methoxy-4,6,8,10,12,12-hexamethyl-3-(1-methylpiperidin-4-yl)-1-oxa-4-azacyclotridecane-11,13-dione] | > 32 | < 4 | < 4 | > 32 | 4 to 32 (≈ 6.69 to 53.5 µM)
CO[C@]1(C)C[C@@H](C)CN(C)[C@@H](C2CCN(CC(C)C)CC2)COC(=O)C(C)(C)C(=O)[C@H](C)[C@H]1O[C@@H]1O[C@H](C)C[C@H](N(C)C)[C@H]1O [Compound 12, (3S,6R,8R,9R,10R)-9-(((2S,3R,4S,6R)-4-(dimethylamino)-3-hydroxy-6-methyltetrahydro-2H-pyran-2-yl)oxy)-3-(1-isobutylpiperidin-4-yl)-8-methoxy-4,6,8,10,12,12-hexamethyl-1-oxa-4-azacyclotridecane-11,13-dione] | > 32 | < 4 | < 4 | > 32 | 4 to 32 (≈ 6.25 to 50 µM)
CO[C@]1(C)C[C@@H](C)CN(C)[C@H](C2CN(C(=O)CN3CCC3)C2)COC(=O)C(C)(C)C(=O)[C@H](C)[C@H]1O[C@@H]1O[C@H](C)C[C@H](N(C)C)[C@H]1O [Compound 14] | > 32 | > 32 | < 4 | > 32 | > 32
CO[C@]1(C)C[C@@H](C)CN(C)[C@H](C2CN(C(=O)CN3Cc4ccccc4C3)C2)COC(=O)C(C)(C)C(=O)[C@H](C)[C@H]1O[C@@H]1O[C@H](C)C[C@H](N(C)C)[C@H]1O [Compound 10, (3R,6R,8R,9R,10R)-9-(((2S,3R,4S,6R)-4-(dimethylamino)-3-hydroxy-6-methyltetrahydro-2H-pyran-2-yl)oxy)-3-(1-(2-(isoindolin-2-yl)acetyl)azetidin-3-yl)-8-methoxy-4,6,8,10,12,12-hexamethyl-1-oxa-4-azacyclotridecane-11,13-dione] | > 32 | 4 to 32 (≈ 5.59 to 44.8 µM) | < 4 | 4 to 32 (≈ 5.59 to 44.8 µM) | 4 to 32 (≈ 5.59 to 44.8 µM)
CCCN1C2CCC1CC([C@@H]1COC(=O)C(C)(C)C(=O)[C@H](C)[C@@H](O[C@@H]3O[C@H](C)C[C@H](N(C)C)[C@H]3O)[C@](C)(OC)C[C@@H](C)CN1C)C2 (stereo partly drawn) [Compound 79, (3R,6R,8R,9R,10R)-9-(((2S,3R,4S,6R)-4-(dimethylamino)-3-hydroxy-6-methyltetrahydro-2H-pyran-2-yl)oxy)-8-methoxy-4,6,8,10,12,12-hexamethyl-3-(8-propyl-8-azabicyclo[3.2.1]octan-3-yl)-1-oxa-4-azacyclotridecane-11,13-dione] | > 32 | 4 to 32 (≈ 6.14 to 49.1 µM) | < 4 | > 32 | < 4
CCCN1C[C@H](C)C[C@@](C)(OC)[C@H](O[C@@H]2O[C@H](C)C[C@H](N(C)C)[C@H]2O)[C@@H](C)C(=O)C(C)(C)C(=O)OC[C@H]1C1CN(C(=O)CN(C)C)C1 [Compound 68, (3R,6R,8R,9R,10R)-9-(((2S,3R,4S,6R)-4-(dimethylamino)-3-hydroxy-6-methyltetrahydro-2H-pyran-2-yl)oxy)-3-(1-(dimethylglycyl)azetidin-3-yl)-8-methoxy-6,8,10,12,12-pentamethyl-4-propyl-1-oxa-4-azacyclotridecane-11,13-dione] | > 32 | 4 to 32 (≈ 5.98 to 47.8 µM) | < 4 | > 32 | 4 to 32 (≈ 5.98 to 47.8 µM)

Continued, values first:

MIC (P. aeruginosa MP-3) [µg/mL] | MIC (K. pneumoniae MP-546) [µg/mL] | MIC (E. coli MP-4) [µg/mL] | MIC (A. baumannii MP-15) [µg/mL] | MIC (S. aureus MP-12) [µg/mL] | SMILES
> 32 | > 32 | > 32 | > 32 | > 32 | CO[C@]1(C)C[C@@H](C)CN(C)[C@H]([C@@H]2CCCN2C)COC(=O)C(C)(C)C(=O)[C@H](C)[C@H]1O[C@@H]1O[C@H](C)C[C@H](N(C)C)[C@H]1O [Compound 106, (3R,6R,8R,9R,10R)-9-(((2S,3R,4S,6R)-4-(dimethylamino)-3-hydroxy-6-methyltetrahydro-2H-pyran-2-yl)oxy)-8-methoxy-4,6,8,10,12,12-hexamethyl-3-((S)-1-methylpyrrolidin-2-yl)-1-oxa-4-azacyclotridecane-11,13-dione]
> 32 | 4 to 32 (≈ 5.98 to 47.8 µM) | < 4 | > 32 | > 32 | CO[C@]1(C)C[C@@H](C)CN(C)[C@@H](C2CN(C(=O)C(C)(C)N(C)C)C2)COC(=O)C(C)(C)C(=O)[C@H](C)[C@H]1O[C@@H]1O[C@H](C)C[C@H](N(C)C)[C@H]1O [Compound 149]
> 32 | > 32 | > 32 | > 32 | > 32 | CO[C@]1(C)C[C@@H](C)CN(C)[C@@H](C2CCCCC2)COC(=O)C(C)(C)C(=O)[C@H](C)[C@H]1O[C@@H]1O[C@H](C)C[C@H](N(C)C)[C@H]1O [Compound 102, (3S,6R,8R,9R,10R)-3-cyclohexyl-9-(((2S,3R,4S,6R)-4-(dimethylamino)-3-hydroxy-6-methyltetrahydro-2H-pyran-2-yl)oxy)-8-methoxy-4,6,8,10,12,12-hexamethyl-1-oxa-4-azacyclotridecane-11,13-dione]
> 32 | > 32 | 4 to 32 (≈ 5.64 to 45.1 µM) | > 32 | > 32 | CO[C@]1(C)C[C@@H](C)CN(C)[C@@H]([C@H]2CC[C@H](N(C)C(=O)CNC3CC3)CC2)COC(=O)C(C)(C)C(=O)[C@H](C)[C@H]1O[C@@H]1O[C@H](C)C[C@H](N(C)C)[C@H]1O [Compound 180, 2-(cyclopropylamino)-N-((1S,4r)-4-((3S,6R,8R,9R,10R)-9-(((2S,3R,4S,6R)-4-(dimethylamino)-3-hydroxy-6-methyltetrahydro-2H-pyran-2-yl)oxy)-8-methoxy-4,6,8,10,12,12-hexamethyl-11,13-dioxo-1-oxa-4-azacyclotridecan-3-yl)cyclohexyl)-N-methylacetamide]
> 32 | < 4 | < 4 | 4 to 32 (≈ 6.19 to 49.5 µM) | 4 to 32 (≈ 6.19 to 49.5 µM) | CO[C@]1(C)C[C@@H](C)CN(C)[C@H](C2CN(Cc3ccccc3)C2)COC(=O)C(C)(C)C(=O)[C@H](C)[C@H]1O[C@@H]1O[C@H](C)C[C@H](N(C)C)[C@H]1O [Compound 101, (3R,6R,8R,9R,10R)-3-(1-benzylazetidin-3-yl)-9-(((2S,3R,4S,6R)-4-(dimethylamino)-3-hydroxy-6-methyltetrahydro-2H-pyran-2-yl)oxy)-8-methoxy-4,6,8,10,12,12-hexamethyl-1-oxa-4-azacyclotridecane-11,13-dione]
> 32 | > 32 | 4 to 32 (≈ 5.86 to 46.9 µM) | > 32 | > 32 | CO[C@]1(C)C[C@@H](C)CN(C)[C@H](C2CCN(C(=O)CN(C)C)CC2)[C@H](C)OC(=O)C(C)(C)C(=O)[C@H](C)[C@H]1O[C@@H]1O[C@H](C)C[C@H](N(C)C)[C@H]1O [Compound 159, (2S,3R,6R,8R,9R,10R)-9-(((2S,3R,4S,6R)-4-(dimethylamino)-3-hydroxy-6-methyltetrahydro-2H-pyran-2-yl)oxy)-3-(1-(dimethylglycyl)piperidin-4-yl)-8-methoxy-2,4,6,8,10,12,12-heptamethyl-1-oxa-4-azacyclotridecane-11,13-dione]
> 32 | 4 to 32 (≈ 5.98 to 47.8 µM) | < 4 | > 32 | > 32 | CO[C@]1(C)C[C@@H](C)CN(C)[C@H](C2CCN(C(=O)CN(C)C)CC2)COC(=O)C(C)(C)C(=O)[C@H](C)[C@H]1O[C@@H]1O[C@H](C)C[C@H](N(C)C)[C@H]1O [Compound 85, (3R,6R,8R,9R,10R)-9-(((2S,3R,4S,6R)-4-(dimethylamino)-3-hydroxy-6-methyltetrahydro-2H-pyran-2-yl)oxy)-3-(1-(dimethylglycyl)piperidin-4-yl)-8-methoxy-4,6,8,10,12,12-hexamethyl-1-oxa-4-azacyclotridecane-11,13-dione]

Reference: patent publication US20220177508A1, “C10-Cyclic Substituted 13-Membered Macrolides and Uses Thereof” (Zikani Therapeutics, Inc., priority 2018, published 2022)
